From patent publication US20230250066A1, “HERBICIDAL CINNOLINE DERIVATIVES” (SYNGENTA CROP PROTECTION AG, priority 2020, published 2023)

Assays:
Format in all cases: in vivo
[1] = tested on: Amaranthus retoflexus (AMARE); experiment: Pre-emergence herbicidal test; conditions: 1000 g/ha, evaluated after 13 days
[2] = tested on: Setaria faberi (SETFA); experiment: Pre-emergence herbicidal test; conditions: 1000 g/ha, evaluated after 13 days
[3] = tested on: Echinochloa crus-galli (ECHCG); experiment: Pre-emergence herbicidal test; conditions: 1000 g/ha, evaluated after 13 days
[4] = tested on: Ipomoea hederacea (IPOHE); experiment: Pre-emergence herbicidal test; conditions: 1000 g/ha, evaluated after 13 days
[5] = tested on: Abutilon theophrasti (ABUTH); experiment: Pre-emergence herbicidal test; conditions: 1000 g/ha, evaluated after 13 days
[6] = tested on: Zea mays (ZEAMX); experiment: Pre-emergence herbicidal test; conditions: 1000 g/ha, evaluated after 13 days
[7] = tested on: Abutilon theophrasti (ABUTH); experiment: Post-emergence herbicidal test; conditions: 1000 g/ha unless otherwise stated, evaluated after 13 days
Experimental: (§1) Seeds of a variety of test species are sown in standard soil in pots (Amaranthus retoflexus (AMARE), Solanum nigrum (SOLNI), Setaria faberi (SETFA), Lolium perenne (LOLPE), Echinochloa crus-galli (ECHCG), Ipomoea hederacea (IPOHE), Abutilon theophrasti (ABUTH), Zea mays (ZEAMX)). After 8 days cultivation under controlled conditions in a glasshouse (at 24° C./16° C., day/night; 14 hours light; 65% humidity), the plants are sprayed with an aqueous spray solution derived from the formulation of the technical active ingredient in acetone/water (50:50) solution containing 0.5% Tween 20 (polyoxyethelyene sorbitan monolaurate, CAS RN 9005-64-5). Compounds are applied at 1000 g/ha unless otherwise stated. The test plants are then grown in a glasshouse under controlled conditions in a glasshouse (at 24° C./16° C., day/night; 14 hours light; 65% humidity) and watered twice daily. After 13 days the test is evaluated for the percentage damage caused to the plant. The biological activities are shown in the following table on a five-point scale (5=81-100%; 4=61-80%; 3=41-60%; 2=21-40%; 1=10-20%; 0=0%;−=not tested).

[8] = tested on: Amaranthus retoflexus (AMARE); experiment: Post-emergence herbicidal test; conditions: 1000 g/ha unless otherwise stated, evaluated after 13 days
Experimental: as §1

[9] = tested on: Echinochloa crus-galli (ECHCG); experiment: Post-emergence herbicidal test; conditions: 1000 g/ha unless otherwise stated, evaluated after 13 days
Experimental: as §1

[10] = tested on: Ipomoea hederacea (IPOHE); experiment: Post-emergence herbicidal test; conditions: 1000 g/ha unless otherwise stated, evaluated after 13 days
Experimental: as §1

[11] = tested on: Setaria faberi (SETFA); experiment: Post-emergence herbicidal test; conditions: 1000 g/ha unless otherwise stated, evaluated after 13 days
Experimental: as §1

[12] = tested on: Zea mays (ZEAMX); experiment: Post-emergence herbicidal test; conditions: 1000 g/ha unless otherwise stated, evaluated after 13 days
Experimental: as §1

| Structure (SMILES) | percentage damage caused to the plant, five-point scale, AMARE [1] | percentage damage caused to the plant, five-point scale, SETFA [2] | percentage damage caused to the plant, five-point scale, ECHCG [3] | percentage damage caused to the plant, five-point scale, IPOHE [4] | percentage damage caused to the plant, five-point scale, ABUTH [5] | percentage damage caused to the plant, five-point scale, ZEAMX [6] | percentage damage caused to the plant, ABUTH (five-point scale) [7] | percentage damage caused to the plant, AMARE (five-point scale) [8] | percentage damage caused to the plant, ECHCG (five-point scale) [9] | percentage damage caused to the plant, IPOHE (five-point scale) [10] | percentage damage caused to the plant, SETFA (five-point scale) [11] | percentage damage caused to the plant, ZEAMX (five-point scale) [12] |
| --- | --- | --- | --- | --- | --- | --- | --- | --- | --- | --- | --- | --- |
| CCOC(=O)c1nn(-c2ccc(OC(F)(F)F)cc2)c2cc(CC(C)C)cc(S(C)(=O)=O)c2c1=O [Compound P46, ethyl 7-isobutyl-5-methysulfonyl-4-oxo-1-[4-(trifluoromethoxy)phenyl]cinnoline-3-carboxylate] | 0 (0=0%) | 0 (0=0%) | 0 (0=0%) | 0 (0=0%) | 1 (1=10-20%) | 2 (2=21-40%) | 1 (1=10-20%) | 0 (0=0%) | 1 (1=10-20%) | 1 (1=10-20%) | 1 (1=10-20%) | 1 (1=10-20%) |
| COCCCOC(=O)c1nn(-c2ccc(OC(F)(F)F)cc2)c2cccc(S(C)(=O)=O)c2c1=O [Compound P69, 3-methoxypropyl 5-methylsulfonyl-4-oxo-1-[4-(trifluoromethoxy)phenyl]cinnoline-3-carboxylate] | 0 (0=0%) | 4 (4=61-80%) | 4 (4=61-80%) | 0 (0=0%) | 0 (0=0%) | 0 (0=0%) | 1 (1=10-20%) | 0 (0=0%) | 3 (3=41-60%) | 1 (1=10-20%) | 4 (4=61-80%) | 2 (2=21-40%) |
| Cc1ccc2c(c1S(C)(=O)=O)c(=O)c(C(=O)O)nn2-c1ccc(OC(F)(F)F)cc1 [Compound P6, 6-methyl-5-methylsulfonyl-4-oxo-1-[4-(trifluoromethoxy)phenyl]cinnoline-3-carboxylic acid] | 1 (1=10-20%) | 4 (4=61-80%) | 3 (3=41-60%) | 1 (1=10-20%) | 2 (2=21-40%) | 1 (1=10-20%) | 1 (1=10-20%) | 2 (2=21-40%) | 4 (4=61-80%) | 1 (1=10-20%) | 3 (3=41-60%) | 1 (1=10-20%) |
| CC(C)OC(=O)c1nn(-c2ccc(OC(F)(F)F)cc2)c2cccc(S(C)(=O)=O)c2c1=O [Compound P65, isopropyl 5-methylsulfonyl-4-oxo-1-[4-(trifluoromethoxy)phenyl]cinnoline-3-carboxylate] | 1 (1=10-20%) | 4 (4=61-80%) | 4 (4=61-80%) | 0 (0=0%) | 1 (1=10-20%) | 0 (0=0%) | 1 (1=10-20%) | 1 (1=10-20%) | 3 (3=41-60%) | 0 (0=0%) | 4 (4=61-80%) | 0 (0=0%) |
| CCOC(=O)c1nn(-c2ccc(OC(F)(F)F)cc2)c2ccc(CC(C)C)c(S(C)(=O)=O)c2c1=O [Compound P45, ethyl 6-isobutyl-5-methylsulfonyl-4-oxo-1-[4-(trifluoromethoxy)phenyl]cinnoline-3-carboxylate] | 0 (0=0%) | 0 (0=0%) | 0 (0=0%) | 0 (0=0%) | 0 (0=0%) | 0 (0=0%) | 0 (0=0%) | 0 (0=0%) | 1 (1=10-20%) | 0 (0=0%) | 1 (1=10-20%) | 1 (1=10-20%) |
| CCCCCCOC(=O)c1nn(-c2ccc(OC(F)(F)F)cc2)c2cccc(S(C)(=O)=O)c2c1=O [Compound P59, hexyl 5-methylsulfonyl-4-oxo-1-[4-(trifluoromethoxy)phenyl]cinoline-3-carboxylate] | 2 (2=21-40%) | 4 (4=61-80%) | 3 (3=41-60%) | 2 (2=21-40%) | 3 (3=41-60%) | 3 (3=41-60%) | 1 (1=10-20%) | 1 (1=10-20%) | 4 (4=61-80%) | 3 (3=41-60%) | 4 (4=61-80%) | 2 (2=21-40%) |
| CCOC(=O)c1nn(-c2ccc(OC(F)(F)F)cc2)c2ccc(C#N)c(S(C)(=O)=O)c2c1=O [Compound P47, ethyl 6-cyano-5-methylsulfonyl-4-oxo-1-[4-(trifluoromethoxy)phenyl]cinnoline-3-carboxylate] | 0 (0=0%) | 0 (0=0%) | 0 (0=0%) | 0 (0=0%) | 0 (0=0%) | 0 (0=0%) | 0 (0=0%) | 0 (0=0%) | 1 (1=10-20%) | 0 (0=0%) | 1 (1=10-20%) | 0 (0=0%) |
